The assay in a line: Spermatostatic activity against Strongylocentrotus nudus sperm assessed as inhibition of egg fertilization preincubated 15 mins before artificial insemination. It counts as functional, cell-based, Mesocentrotus nudus.

Experimental findings from ChEMBL document CHEMBL1146571, “Mycalosides B-I, eight new spermostatic steroid oligoglycosides from the sponge Mycale laxissima” (J Nat Prod, 2003) are described below.

In brackets after ≈: the same amount, converted by molar mass.

As for `CC(C)[C@H](C)/C=C/[C@@H](CO)[C@H]1C[C@H](O)[C@H]2[C@@H]3CC=C4[C@@H](O)[C@@H](O[C@@H]5O[C@H](CO)[C@@H](O[C@@H]6O[C@H](CO)[C@H](O)[C@H](O)[C@H]6O)[C@H](O[C@@H]6OC[C@@H](O)[C@@H](O)[C@@H]6O[C@H]6O[C@H](CO)[C@H](O)[C@H](O)[C@H]6O)[C@H]5O)CC[C@]4(C)[C@H]3CC[C@@]21C` [MYCALOSIDE A], the EC50 worked out at 3.2 µg/mL (≈ 3 µM).
Consider `CC(C)CCC[C@@H](CO)[C@H]1CC(=O)[C@H]2[C@@H]3CC=C4[C@@H](O)[C@@H](O[C@@H]5O[C@H](CO)[C@@H](O[C@@H]6O[C@H](CO)[C@H](O)[C@H](O)[C@H]6O)[C@H](O[C@@H]6OC[C@@H](O)[C@@H](O)[C@@H]6O[C@H]6O[C@H](CO)[C@H](O)[C@H](O)[C@H]6O)[C@H]5O)CC[C@]4(C)[C@H]3CC[C@]12C` [MYCALOSIDE G], for which the EC50 turned out to be 3.2 µg/mL (≈ 3.04 µM).

Usually EC50 stands for the concentration that produces a half-maximal response.
